Source: patent US20230372498A1, “PLK1 SELECTIVE DEGRADATION INDUCING COMPOUND” (UPPTHERA, priority 2020, published 2023)
Where two headings read alike, the source gives them in different places.

Biological target: T1, PLK1 (Homo sapiens, UniProt P53350)
T1 construct: endogenous in cells; host or cells: HeLa
Experiment: PLK1 protein degradation in HeLa cells, Western blotting (PLK1/GAPDH ratio)
Format: cell-based
Conditions: 6 hours compound incubation; for DC50: measured only if the grade of Dmax is A or B; for Dmax: thymidine block and release, 10 points three-fold from 3 μM, PLK1 to GAPDH ratio
Procedure, shortened: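 Thymidine-synchronised HeLa cells (2 mM, 24 h) released 4 h into complete medium, then treated 6 h with compound in 10-point 3-fold dilutions from 3 μM. RIPA lysates (15 μg protein) run on SDS-PAGE; PLK1 Western blot normalised to GAPDH.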

T1 sequence (P53350 whole entry): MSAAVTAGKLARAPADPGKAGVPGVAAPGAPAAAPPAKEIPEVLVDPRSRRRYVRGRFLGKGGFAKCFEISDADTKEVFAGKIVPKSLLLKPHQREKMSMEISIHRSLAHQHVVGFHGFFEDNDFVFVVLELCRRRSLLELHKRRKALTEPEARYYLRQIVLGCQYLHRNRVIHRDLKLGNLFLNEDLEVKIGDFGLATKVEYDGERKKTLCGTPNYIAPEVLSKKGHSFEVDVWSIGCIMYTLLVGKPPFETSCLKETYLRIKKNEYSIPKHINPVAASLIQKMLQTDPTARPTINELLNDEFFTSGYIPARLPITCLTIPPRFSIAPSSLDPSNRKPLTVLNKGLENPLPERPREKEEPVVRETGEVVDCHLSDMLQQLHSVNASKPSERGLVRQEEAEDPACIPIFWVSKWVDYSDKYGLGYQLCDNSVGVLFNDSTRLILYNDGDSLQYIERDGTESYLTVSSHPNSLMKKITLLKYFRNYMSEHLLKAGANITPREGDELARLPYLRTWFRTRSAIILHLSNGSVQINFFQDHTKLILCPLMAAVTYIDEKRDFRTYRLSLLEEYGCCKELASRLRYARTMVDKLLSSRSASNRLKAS

SMILES | DC50 | Dmax (read-out: Dmax) | Dmax
COc1cc(C(=O)NCCCCCCCC(=O)Nc2cccc3c2C(=O)N(C2CCC(=O)NC2=O)C3=O)c(F)cc1Nc1ncc2c(n1)N(C1CCCC1)CC(F)(F)C(=O)N2C (stereo not drawn) [Compound 158, 4-((9-cyclopentyl-7,7-difluoro-5-methyl-6-oxo-6,7,8,9-tetrahydro-5H-pyrimido[4,5-b][1,4]diazepin-2-yl)amino)-N-(8-((2-(2,6-dioxopiperidin-3-yl)-1,3-dioxoisoindolin-4-yl)amino)-8-oxooctyl)-2-fluoro-5-methoxybenzamide] | ≤ 500 nM | 60 to 80% | 
COc1cc(C(=O)NC2CC3(C2)CN(C(=O)CCNc2cccc4c2C(=O)N(C2CCC(=O)NC2=O)C4=O)C3)c(F)cc1Nc1ncc2c(n1)N(C1CCCC1)CC(F)(F)C(=O)N2C (stereo not drawn) [Compound 159, 4-((9-cyclopentyl-7,7-difluoro-5-methyl-6-oxo-6,7,8,9-tetrahydro-5H-pyrimido[4,5-b][1,4]diazepin-2-yl)amino)-N-(2-(3-((2-(2,6-dioxopiperidin-3-yl)-1,3-dioxoisoindolin-4-yl)amino)propanoyl)-2-azaspiro[3.3]heptan-6-yl)-2-fluoro-5-methoxybenzamide] | ≤ 50 nM | ≥ 80% | 
COc1cc(C(=O)NC2CC3(C2)CN(C(=O)CCCNc2cccc4c2C(=O)N(C2CCC(=O)NC2=O)C4=O)C3)c(F)cc1Nc1ncc2c(n1)N(C1CCCC1)CC(F)(F)C(=O)N2C (stereo not drawn) [Compound 160, 4-((9-cyclopentyl-7,7-difluoro-5-methyl-6-oxo-6,7,8,9-tetrahydro-5H-pyrimido[4,5-b][1,4]diazepin-2-yl)amino)-N-(2-(4-((2-(2,6-dioxopiperidin-3-yl)-1,3-dioxoisoindolin-4-yl)amino)butanoyl)-2-azaspiro[3.3]heptan-6-yl)-2-fluoro-5-methoxybenzamide] | ≤ 50 nM | ≥ 80% | 
COc1cc(C(=O)NC2CC3(C2)CN(C(=O)CCCCNc2cccc4c2C(=O)N(C2CCC(=O)NC2=O)C4=O)C3)c(F)cc1Nc1ncc2c(n1)N(C1CCCC1)CC(F)(F)C(=O)N2C (stereo not drawn) [Compound 161, 4-((9-cyclopentyl-7,7-difluoro-5-methyl-6-oxo-6,7,8,9-tetrahydro-5H-pyrimido[4,5-b][1,4]diazepin-2-yl)amino)-N-(2-(5-((2-(2,6-dioxopiperidin-3-yl)-1,3-dioxoisoindolin-4-yl)amino)pentanoyl)-2-azaspiro[3.3]heptan-6-yl)-2-fluoro-5-methoxybenzamide] | ≤ 50 nM | ≥ 80% | 
COc1cc(C(=O)NCCCCCNC(=O)COc2cccc3c2C(=O)N(C2CCC(=O)NC2=O)C3=O)c(F)cc1Nc1ncc2c(n1)N(C1CCCC1)CC(F)(F)C(=O)N2C (stereo not drawn) [Compound 162, 4-((9-cyclopentyl-7,7-difluoro-5-methyl-6-oxo-6,7,8,9-tetrahydro-5H-pyrimido[4,5-b][1,4]diazepin-2-yl)amino)-N-(5-(2-((2-(2,6-dioxopiperidin-3-yl)-1,3-dioxoisoindolin-4-yl)oxy)acetamido)pentyl)-2-fluoro-5-methoxybenzamide] | ≤ 50 nM | ≥ 80% | 
COc1cc(C(=O)NCCOCCOCCNc2ccc3c(c2)C(=O)N(C2CCC(=O)NC2=O)C3=O)c(F)cc1Nc1ncc2c(n1)N(C1CCCC1)CC(F)(F)C(=O)N2C (stereo not drawn) [Compound 163, 4-((9-cyclopentyl-7,7-difluoro-5-methyl-6-oxo-6,7,8,9-tetrahydro-5H-pyrimido[4,5-b][1,4]diazepin-2-yl)amino)-N-(2-(2-(2-((2-(2,6-dioxopiperidin-3-yl)-1,3-dioxoisoindolin-5-yl)amino)ethoxy)ethoxy)ethyl)-2-fluoro-5-methoxybenzamide] | ≤ 500 nM | 60 to 80% | 
COc1cc(C(=O)NCCCCCCc2cccc3c2CN(C2CCC(=O)NC2=O)C3=O)c(F)cc1Nc1ncc2c(n1)N(C1CCCC1)CC(F)(F)C(=O)N2C (stereo not drawn) [Compound 164, 4-((9-cyclopentyl-7,7-difluoro-5-methyl-6-oxo-6,7,8,9-tetrahydro-5H-pyrimido[4,5-b][1,4]diazepin-2-yl)amino)-N-(6-(2-(2,6-dioxopiperidin-3-yl)-1-oxoisoindolin-4-yl)hexyl)-2-fluoro-5-methoxybenzamide] | ≤ 500 nM | 60 to 80% | 
COc1cc(C(=O)NC2CCN(CCOCCOCCOCCOCC(=O)N[C@H](C(=O)N3C[C@H](O)C[C@H]3C(=O)NCc3ccc(-c4scnc4C)cc3)C(C)(C)C)CC2)c(F)cc1Nc1ncc2c(n1)N(C1CCCC1)CC(F)(F)C(=O)N2C [Example 82] |  |  | C (C: less than 60%)
COc1cc(C(=O)NC2CCN(CCOCCOCCOCCOCCOCC(=O)N[C@H](C(=O)N3C[C@H](O)C[C@H]3C(=O)NCc3ccc(-c4scnc4C)cc3)C(C)(C)C)CC2)c(F)cc1Nc1ncc2c(n1)N(C1CCCC1)CC(F)(F)C(=O)N2C [Example 83] |  |  | C (C: less than 60%)
COc1cc(C(=O)NC2CCN(CCCCCCCCOCC(=O)N[C@H](C(=O)N3C[C@H](O)C[C@H]3C(=O)NCc3ccc(-c4scnc4C)cc3)C(C)(C)C)CC2)c(F)cc1Nc1ncc2c(n1)N(C1CCCC1)CC(F)(F)C(=O)N2C [Example 84] | ≤ 500 nM |  | B (B: Dmax is 80% or less and 60% or more)
CN1C(=O)C(F)(F)CN(C2CCCC2)c2nc(Nc3cc(F)c(C(=O)NC4CCN(CCOCCOCCNc5cccc6c5C(=O)N(C5CCC(=O)NC5=O)C6=O)CC4)cc3OC3CCC3)ncc21 (stereo not drawn) [Example 93, 5-cyclobutoxy-4-((9-cyclopentyl-7,7-difluoro-5-methyl-6-oxo-6,7,8,9-tetrahydro-5H-pyrimido[4,5-b][1,4]diazepin-2-yl)amino)-N-(1-(2-(2-(2-((2-(2,6-dioxopiperidin-3-yl)-1,3-dioxoisoindolin-4-yl)amino)ethoxy)ethoxy)ethyl)piperidin-4-yl)-2-fluorobenzamide] | ≤ 50 nM | ≥ 80% | 

Now from value to compound, other results behind:

DC50 | Dmax (read-out: Dmax) | SMILES | Dmax
 | < 60% | COc1cc(C(=O)NC2CCN(CCOCCOc3cc(-c4scnc4C)ccc3CNC(=O)[C@@H]3C[C@@H](O)CN3C(=O)[C@@H](NC(=O)C3(F)CC3)C(C)(C)C)CC2)c(F)cc1Nc1ncc2c(n1)N(C1CCCC1)CC(F)(F)C(=O)N2C [Example 85, (2S,4R)—N-(2-(2-(2-(4-(4-((9-cyclopentyl-7,7-difluoro-5-methyl-6-oxo-6,7,8,9-tetrahydro-5H-pyrimido[4,5-b][1,4]diazepin-2-yl)amino)-2-fluoro-5-methoxybenzamido)piperidin-1-yl)ethoxy)ethoxy)-4-(4-methylthiazol-5-yl)benzyl)-1-((S)-2-(1-fluorocyclopropane-1-carboxamido)-3,3-dimethylbutanoyl)-4-hydroxypyrrolidine-2-carboxamide] | 
 | < 60% | COc1cc(C(=O)NC2CCN(CCOCCOCCOCCOc3cc(-c4scnc4C)ccc3CNC(=O)[C@@H]3C[C@@H](O)CN3C(=O)[C@@H](NC(=O)C3(F)CC3)C(C)(C)C)CC2)c(F)cc1Nc1ncc2c(n1)N(C1CCCC1)CC(F)(F)C(=O)N2C [Example 87, (2S,4R)—N-(2-(2-(2-(2-(2-(4-(4-((9-cyclopentyl-7,7-difluoro-5-methyl-6-oxo-6,7,8,9-tetrahydro-5H-pyrimido[4,5-b][1,4]diazepin-2-yl)amino)-2-fluoro-5-methoxybenzamido)piperidin-1-yl)ethoxy)ethoxy)ethoxy)ethoxy)-4-(4-methylthiazol-5-yl)benzyl)-1-((S)-2-(1-fluorocyclopropane-1-carboxamido)-3,3-dimethylbutanoyl)-4-hydroxypyrrolidine-2-carboxamide] | 
≤ 500 nM | 60 to 80% | COc1cc(C(=O)NC2CCN(CCCCCCCCOc3cc(-c4scnc4C)ccc3CNC(=O)[C@@H]3C[C@@H](O)CN3C(=O)[C@@H](NC(=O)C3(F)CC3)C(C)(C)C)CC2)c(F)cc1Nc1ncc2c(n1)N(C1CCCC1)CC(F)(F)C(=O)N2C [Example 89, (2S,4R)—N-(2-((8-(4-(4-((9-cyclopentyl-7,7-difluoro-5-methyl-6-oxo-6,7,8,9-tetrahydro-5H-pyrimido[4,5-b][1,4]diazepin-2-yl)amino)-2-fluoro-5-methoxybenzamido)piperidin-1-yl)octyl)oxy)-4-(4-methylthiazol-5-yl)benzyl)-1-((S)-2-(1-fluorocyclopropane-1-carboxamido)-3,3-dimethylbutanoyl)-4-hydroxypyrrolidine-2-carboxamide] | 
≤ 500 nM | 60 to 80% | CCOc1cc(C(=O)NC2CCN(CCOCCOCCNc3cccc4c3C(=O)N(C3CCC(=O)NC3=O)C4=O)CC2)c(F)cc1Nc1ncc2c(n1)N(C1CCCC1)CC(F)(F)C(=O)N2C (stereo not drawn) [Example 90, 4-((9-cyclopentyl-7,7-difluoro-5-methyl-6-oxo-6,7,8,9-tetrahydro-5H-pyrimido[4,5-b][1,4]diazepin-2-yl)amino)-N-(1-(2-(2-(2-((2-(2,6-dioxopiperidin-3-yl)-1,3-dioxoisoindolin-4-yl)amino)ethoxy)ethoxy)ethyl)piperidin-4-yl)-5-ethoxy-2-fluorobenzamide] | 
≤ 500 nM | 60 to 80% | CC(C)Oc1cc(C(=O)NC2CCN(CCOCCOCCNc3cccc4c3C(=O)N(C3CCC(=O)NC3=O)C4=O)CC2)c(F)cc1Nc1ncc2c(n1)N(C1CCCC1)CC(F)(F)C(=O)N2C (stereo not drawn) [Example 91, 4-((9-cyclopentyl-7,7-difluoro-5-methyl-6-oxo-6,7,8,9-tetrahydro-5H-pyrimido[4,5-b][1,4]diazepin-2-yl)amino)-N-(1-(2-(2-(2-((2-(2,6-dioxopiperidin-3-yl)-1,3-dioxoisoindolin-4-yl)amino)ethoxy)ethoxy)ethyl)piperidin-4-yl)-2-fluoro-5-isopropoxybenzamide] | 
≤ 50 nM | ≥ 80% | CN1C(=O)C(F)(F)CN(C2CCCC2)c2nc(Nc3cc(F)c(C(=O)NC4CCN(CCOCCOCCNc5cccc6c5C(=O)N(C5CCC(=O)NC5=O)C6=O)CC4)cc3OC3CC3)ncc21 (stereo not drawn) [Example 92, 4-((9-cyclopentyl-7,7-difluoro-5-methyl-6-oxo-6,7,8,9-tetrahydro-5H-pyrimido[4,5-b][1,4]diazepin-2-yl)amino)-5-cyclopropoxy-N-(1-(2-(2-(2-((2-(2,6-dioxopiperidin-3-yl)-1,3-dioxoisoindolin-4-yl)amino)ethoxy)ethoxy)ethyl)piperidin-4-yl)-2-fluorobenzamide] | 
